Results published in patent US20170232083A1, “METHODS OF DIAGNOSIS AND TREATMENT OF CELIAC DISEASE IN CHILDREN” (priority 2014, published 2017).
“And” between values parts separate entries of the source, which are not always exact repeats. Equal entries are not always repeated. Non-standard residues stand in square brackets, D forms with d. pGlu = O=C1CC[C@@H](C(=O)O)N1

Key:
[1] = test system: PBMC (polyclonal gluten-specific T cells) of paediatric and adult CD patients; conditions: corresponding adult data shown for comparison (14); cited from earlier work
[2] = test system: PBMC (polyclonal gluten-specific T cells) of paediatric and adult CD patients; experiment: IFN-γ ELISpot of PBMC after 3 day oral wheat challenge (SFU, % of maximal peptide response, dominance scores, EC50; Examples 5-6); type: cell-based, human; conditions: for Dominance score 3-5yrs (n = 9): CD children 3-5yrs, n = 9, following wheat challenge; for Dominance score 3-5yrs (n = 9) / Dominance score 6-10yrs (n = 10) / Dominance score 11-18yrs (n = 11): mean percentage of maximal peptide response; for Dominance score 6-10yrs (n = 10): CD children 6-10yrs, n = 10, following wheat challenge; for Dominance score 11-18yrs (n = 11): CD children 11-18yrs, n = 11, following wheat challenge; for Dominance score Mean all ages: CD children, following wheat challenge (Table 9); for Dominance scores 3-5 yrs: children with celiac disease 3-5 yrs after wheat challenge (Table 14); for Dominance scores 6-10 yrs: children with celiac disease 6-10 yrs after wheat challenge (Table 14); for Dominance scores 11-18 yrs: children with celiac disease 11-18 yrs after wheat challenge (Table 14); for Dominance scores Mean all ages: mean of all subjects (Table 14)
[3] = test system: peripheral blood mononuclear cells obtained from children; experiment: IFNγ ELISpot PBMC assay after oral wheat bread challenge (Examples 1-2); type: cell-based, human
Protocol: An oral wheat bread challenge was conducted in DQ2.5+ children and adolescents having Celiac disease. The age ranges were 3-5, 6-10 and 11-18 years of age. An ELISpot peripheral blood mononucleated cell (PBMC) assay was performed to measure the level of IFNγ released by the PBMCs after being contacted with peptide 1, peptide 2, peptide 3, or a combination thereof. The identities of peptides 1, 2, and 3 are shown below.
The values the rows starting from “Blank (SFU)” and ending at “Pept-1/2/3 (150)” are all spot forming unit (SFU) values. The values in the parentheses in the first column are the concentration of each peptide in micrograms that were added to the PBMCs (e.g., Pept-1 50=50 micrograms of Peptide 1, Pept-1/2/3 50=50 micrograms of each of Peptide 1, Peptide 2, and Peptide 3). Pept-1=Peptide 1, Pept-2=Peptide 2, Pept-3=Peptide 3, the amino acid identities of which are mentioned above. D-Gli=deamidated gliadin. WT-Gli=wild-type gliadin. D-Glut=deamidated gluten. WT-Glut=wild-type gluten.
IFNγ ELISpot responses in 9 older children (11-17 yo) and 6 younger children (3-10 yo) were stimulated by the mixture of peptides 1, 2, and 3 described in Example 1 (each peptide at a concentration of 25 ug/mL) or stimulated by deamidated gliadin (100 ug/mL) after 3-day wheat challenge (r2=0.8, p<0.0001). The ELISpot responses were similar using either the peptide mixture of the deamidated gliadin (FIG. 1).

Substance: W07 (QPFPQPEQPFCQQ) [Peptide W07]
- Dominance scores 18+ yrs [1]: 8
- Dominance score 3-5yrs (n = 9) [2]: 38.2
- Dominance score 6-10yrs (n = 10) [2]: 20.5
- Dominance score 11-18yrs (n = 11) [2]: 16.2
- Dominance score Mean all ages [2]: 22.7
- Dominance scores 3-5 yrs [2]: 40
- Dominance scores 6-10 yrs [2]: 20
- Dominance scores 11-18 yrs [2]: 16
- Dominance scores Mean all ages [2]: 24

Substance: W32 (PFPEQPEQPFPQP) [Peptide W32]
- Dominance scores 18+ yrs [1]: 0
- Dominance score 3-5yrs (n = 9) [2]: 26.9
- Dominance score 6-10yrs (n = 10) [2]: 34.4
- Dominance score 11-18yrs (n = 11) [2]: 28.2
- Dominance score Mean all ages [2]: 30.2
- Dominance scores 3-5 yrs [2]: 26
- Dominance scores 6-10 yrs [2]: 34
- Dominance scores 11-18 yrs [2]: 28
- Dominance scores Mean all ages [2]: 30

Substance: EQPFPQPEQPFPWQP ([pGlu]QPFPQPEQPFPWQP-NH2; SMILES NC(=O)CC[C@H](NC(=O)[C@H](Cc1c[nH]c2ccccc12)NC(=O)[C@@H]1CCCN1C(=O)[C@H](Cc1ccccc1)NC(=O)[C@@H]1CCCN1C(=O)[C@H](CCC(N)=O)NC(=O)[C@H](CCC(=O)O)NC(=O)[C@@H]1CCCN1C(=O)[C@H](CCC(N)=O)NC(=O)[C@@H]1CCCN1C(=O)[C@H](Cc1ccccc1)NC(=O)[C@@H]1CCCN1C(=O)[C@H](CCC(N)=O)NC(=O)[C@@H]1CCC(=O)N1)C(=O)N1CCC[C@H]1C(N)=O) [Peptide 2]
- most active peptides in gliadin for children [3]: most active
- SFU, IFNγ ELISpot ([3]; Subject A, 5.0 × 10^5 cells per well, 50 micrograms, listed as Pept-2): 4 SFU and 3 SFU
- SFU, IFNγ ELISpot ([3]; Subject A, 5.0 × 10^5 cells per well, 100 micrograms, listed as Pept-2): 5 SFU and 3 SFU
- SFU, IFNγ ELISpot ([3]; Subject B, 5.0 × 10^5 cells per well, 25 micrograms, listed as Pept-2): 4 SFU and 6 SFU
- SFU, IFNγ ELISpot ([3]; Subject B, 5.0 × 10^5 cells per well, 50 micrograms, listed as Pept-2): 7 SFU and 8 SFU
- SFU, IFNγ ELISpot ([3]; Subject C, 5.0 × 10^5 cells per well, 50 micrograms): 4 SFU
- SFU, IFNγ ELISpot ([3]; Subject D, 4.0 × 10^5 cells per well, 25 micrograms, listed as Pept-2): 17 SFU and 30 SFU
- SFU, IFNγ ELISpot ([3]; Subject D, 4.0 × 10^5 cells per well, 50 micrograms, listed as Pept-2): 29 SFU and 32 SFU
- SFU, IFNγ ELISpot ([3]; Subject E, 5.0 × 10^5 cells per well, 25 micrograms, listed as Pept-2): 55 SFU and 45 SFU
- SFU, IFNγ ELISpot ([3]; Subject E, 5.0 × 10^5 cells per well, 50 micrograms, listed as Pept-2): 45 SFU and 43 SFU
- SFU, IFNγ ELISpot ([3]; Subject E, 5.0 × 10^5 cells per well, 100 micrograms, listed as Pept-2): 67 SFU and 44 SFU
- SFU, IFNγ ELISpot ([3]; Subject F, 5.0 × 10^5 cells per well, 25 micrograms, listed as Pept-2): 44 SFU and 59 SFU
- SFU, IFNγ ELISpot ([3]; Subject F, 5.0 × 10^5 cells per well, 50 micrograms, listed as Pept-2): 64 SFU and 105 SFU
- SFU, IFNγ ELISpot ([3]; Subject F, 5.0 × 10^5 cells per well, 100 micrograms, listed as Pept-2): 41 SFU and 59 SFU
- SFU, IFNγ ELISpot ([3]; Subject G, 4.0 × 10^5 cells per well, 25 micrograms): 7 SFU
- SFU, IFNγ ELISpot ([3]; Subject G, 4.0 × 10^5 cells per well, 100 micrograms, listed as Pept-2): 5 SFU and 9 SFU
- SFU, IFNγ ELISpot ([3]; Subject I, 5.0 × 10^5 cells per well, 25 micrograms): 7 SFU
- SFU, IFNγ ELISpot ([3]; Subject I, 5.0 × 10^5 cells per well, 50 micrograms, listed as Pept-2): 5 SFU and 6 SFU
- SFU, IFNγ ELISpot ([3]; Subject J, 5.0 × 10^5 cells per well, 25 micrograms, listed as Pept-2): 85 SFU and 98 SFU
- SFU, IFNγ ELISpot ([3]; Subject J, 5.0 × 10^5 cells per well, 50 micrograms, listed as Pept-2): 107 SFU and 83 SFU
- SFU, IFNγ ELISpot ([3]; Subject J, 5.0 × 10^5 cells per well, 100 micrograms, listed as Pept-2): 81 SFU and 90 SFU
- SFU, IFNγ ELISpot ([3]; Subject K, 3.2 × 10^5 cells per well, 25 micrograms, listed as Pept-2): 17 SFU and 22 SFU
- SFU, IFNγ ELISpot ([3]; Subject K, 3.2 × 10^5 cells per well, 50 micrograms, listed as Pept-2): 19 SFU and 18 SFU
- SFU, IFNγ ELISpot ([3]; Subject K, 3.2 × 10^5 cells per well, 100 micrograms, listed as Pept-2): 23 SFU and 15 SFU
- SFU, IFNγ ELISpot ([3]; Subject L, 3.5 × 10^5 cells per well, 25 micrograms, listed as Pept-2): 5 SFU and 4 SFU
- SFU, IFNγ ELISpot ([3]; Subject L, 3.5 × 10^5 cells per well, 100 micrograms, listed as Pept-2): 2 SFU and 4 SFU
- SFU, IFNγ ELISpot ([3]; Subject M, 2.3 × 10^5 cells per well, 25 micrograms, listed as Pept-2): 28 SFU and 27 SFU
- SFU, IFNγ ELISpot ([3]; Subject M, 2.3 × 10^5 cells per well, 50 micrograms, listed as Pept-2): 26 SFU and 29 SFU
- SFU, IFNγ ELISpot ([3]; Subject M, 2.3 × 10^5 cells per well, 100 micrograms, listed as Pept-2): 32 SFU and 24 SFU
- SFU, IFNγ ELISpot ([3]; Subject N, 2.4 × 10^5 cells per well, 100 micrograms, listed as Pept-2): 4 SFU and 7 SFU
- SFU, IFNγ ELISpot ([3]; Subject P, 3.0 × 10^5 cells per well, 0.5 micrograms, listed as Pept-2): 10 SFU and 8 SFU
- SFU, IFNγ ELISpot ([3]; Subject P, 3.0 × 10^5 cells per well, 1 micrograms, listed as Pept-2): 18 SFU and 11 SFU
- SFU, IFNγ ELISpot ([3]; Subject P, 3.0 × 10^5 cells per well, 5 micrograms, listed as Pept-2): 19 SFU and 15 SFU
- SFU, IFNγ ELISpot ([3]; Subject Q, 3.0 × 10^5 cells per well, 0.5 micrograms, listed as Pept-2): 44 SFU and 51 SFU
- SFU, IFNγ ELISpot ([3]; Subject Q, 3.0 × 10^5 cells per well, 1 micrograms, listed as Pept-2): 31 SFU and 41 SFU
- SFU, IFNγ ELISpot ([3]; Subject Q, 3.0 × 10^5 cells per well, 2.5 micrograms, listed as Pept-2): 44 SFU and 51 SFU
- SFU, IFNγ ELISpot ([3]; Subject Q, 3.0 × 10^5 cells per well, 5 micrograms, listed as Pept-2): 30 SFU
- SFU, IFNγ ELISpot ([3]; Subject R, 3.0 × 10^5 cells per well, 0.1 micrograms, listed as Pept-2): 18 SFU and 20 SFU
- SFU, IFNγ ELISpot ([3]; Subject R, 3.0 × 10^5 cells per well, 0.5 micrograms, listed as Pept-2): 16 SFU and 14 SFU
- SFU, IFNγ ELISpot ([3]; Subject R, 3.0 × 10^5 cells per well, 1 micrograms, listed as Pept-2): 15 SFU and 11 SFU
- SFU, IFNγ ELISpot ([3]; Subject R, 3.0 × 10^5 cells per well, 5 micrograms, listed as Pept-2): 16 SFU
- SFU, IFNγ ELISpot ([3]; Subject S, 3.0 × 10^5 cells per well, 0.5 micrograms, listed as Pept-2): 2 SFU and 1 SFU
- SFU, IFNγ ELISpot ([3]; Subject S, 3.0 × 10^5 cells per well, 1 micrograms, listed as Pept-2): 5 SFU and 3 SFU
- SFU, IFNγ ELISpot ([3]; Subject S, 3.0 × 10^5 cells per well, 2.5 micrograms, listed as Pept-2): 2 SFU and 3 SFU
- SFU, IFNγ ELISpot ([3]; Subject S, 3.0 × 10^5 cells per well, 5 micrograms, listed as Pept-2): 5 SFU
- SFU, IFNγ ELISpot ([3]; Subject T, 3.0 × 10^5 cells per well, 0.1 micrograms, listed as Pept-2): 33 SFU and 47 SFU
- SFU, IFNγ ELISpot ([3]; Subject T, 3.0 × 10^5 cells per well, 0.5 micrograms, listed as Pept-2): 34 SFU and 39 SFU
- SFU, IFNγ ELISpot ([3]; Subject T, 3.0 × 10^5 cells per well, 1 micrograms, listed as Pept-2): 41 SFU and 51 SFU
- SFU, IFNγ ELISpot ([3]; Subject T, 3.0 × 10^5 cells per well, 2.5 micrograms, listed as Pept-2): 49 SFU and 56 SFU
- SFU, IFNγ ELISpot ([3]; Subject T, 3.0 × 10^5 cells per well, 5 micrograms, listed as Pept-2): 68 SFU
- SFU, IFNγ ELISpot ([3]; Subject U, 3.0 × 10^5 cells per well, 0.1 micrograms, listed as Pept-2): 8 SFU and 6 SFU
- SFU, IFNγ ELISpot ([3]; Subject U, 3.0 × 10^5 cells per well, 0.5 micrograms, listed as Pept-2): 8 SFU and 12 SFU
- SFU, IFNγ ELISpot ([3]; Subject U, 3.0 × 10^5 cells per well, 1 micrograms, listed as Pept-2): 13 SFU and 15 SFU
- SFU, IFNγ ELISpot ([3]; Subject U, 3.0 × 10^5 cells per well, 2.5 micrograms, listed as Pept-2): 26 SFU and 33 SFU
- SFU, IFNγ ELISpot ([3]; Subject U, 3.0 × 10^5 cells per well, 5 micrograms, listed as Pept-2): 28 SFU
- T cell response in PBMC samples from children after gluten challenge ([3]; general increase in SFU in each child, Tables 2-5): induce a T cell response
